In PubChem BioAssay AID180 (DTP/NCI, 2004):
Several values for one entry are separate records, joined by “and”; a condition that tells them apart may be missing. Equal entries are not always repeated.

Test system: BDF1 mice, Adenocarcinoma 755 s.c., tumor weight T/C
Assay: NCI In Vivo Anticancer Drug Screen. Data for tumor model Adenocarcinoma 755 (subcutaneous) in B6D2F1 (BDF1) mice
Details: endpoint: mean tumor weight, higher = larger tumour
Summary of the method: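 Readout: T/C, i.e. treated-group measurement over vehicle-control measurement. Endpoint is survival or tumor size in tumor-bearing mice given compound.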

[1] = dose: 12.0 mg/kg/injection, schedule: Q01DX011 (ip), vehicle: carboxymethylcellulose (CMC)
[2] = dose: 12.0 mg/kg/injection, schedule: Q01DX011 (ip), vehicle: methylcellulose (MC)
[3] = dose: 25.0 mg/kg/injection, schedule: Q01DX011 (ip), vehicle: carboxymethylcellulose (CMC)
[4] = dose: 25.0 mg/kg/injection, schedule: Q01DX011 (ip), vehicle: methylcellulose (MC)
[5] = dose: 50.0 mg/kg/injection, schedule: Q01DX011 (ip), vehicle: carboxymethylcellulose (CMC)
[6] = dose: 50.0 mg/kg/injection, schedule: Q01DX011 (ip), vehicle: methylcellulose (MC)
[7] = dose: 100.0 mg/kg/injection, schedule: Q01DX011 (ip), vehicle: methylcellulose (MC)
[8] = dose: 30.0 mg/kg/injection, schedule: Q01DX011 (ip), vehicle: carboxymethylcellulose (CMC)
[9] = dose: 60.0 mg/kg/injection, schedule: Q01DX011 (ip), vehicle: carboxymethylcellulose (CMC)
[10] = dose: 120.0 mg/kg/injection, schedule: Q01DX011 (ip), vehicle: carboxymethylcellulose (CMC)
[11] = dose: 240.0 mg/kg/injection, schedule: Q01DX011 (ip), vehicle: carboxymethylcellulose (CMC)
[12] = dose: 5.0 mg/kg/injection, schedule: Q01DX011 (ip), vehicle: carboxymethylcellulose (CMC)
[13] = dose: 10.0 mg/kg/injection, schedule: Q01DX011 (ip), vehicle: carboxymethylcellulose (CMC)
[14] = dose: 20.0 mg/kg/injection, schedule: Q01DX011 (ip), vehicle: carboxymethylcellulose (CMC)

CC(=O)[C@@]1(O)[C@H](C)C[C@H]2[C@@H]3C=C(C)C4=Cc5c(cnn5-c5ccccc5)C[C@]4(C)[C@H]3[C@@H](O)C[C@@]21C
T/C (dose: 0.01 mg/kg/injection, schedule: Q01DX011 (sc), vehicle: steriod suspending solution): 70 % of control
T/C (dose: 0.03 mg/kg/injection, schedule: Q01DX011 (sc), vehicle: steriod suspending solution): 43 % of control
T/C (dose: 0.05 mg/kg/injection, schedule: Q01DX011 (sc), vehicle: steriod suspending solution): 41 % of control
T/C (dose: 0.2 mg/kg/injection, schedule: Q01DX011 (sc), vehicle: steriod suspending solution): 27 % of control and 44 % of control
T/C (dose: 0.3 mg/kg/injection, schedule: Q01DX011 (sc), vehicle: steriod suspending solution): 14 % of control and 28 % of control
T/C (dose: 0.5 mg/kg/injection, schedule: Q01DX011 (sc), vehicle: steriod suspending solution): 33 % of control
T/C (dose: 30.0 micrograms/kg/injection, schedule: Q01DX011 (ip), vehicle: saline): 115 % of control
T/C (dose: 60.0 micrograms/kg/injection, schedule: Q01DX011 (ip), vehicle: saline): 115 % of control
T/C (dose: 120.0 micrograms/kg/injection, schedule: Q01DX011 (ip), vehicle: saline): 105 % of control

CSc1nc(Cl)c(Br)c(Sc2nc(N)nc3nc[nH]c23)n1
T/C (dose: 6.25 mg/kg/injection, schedule: Q01DX011 (ip), vehicle: methylcellulose (MC)): 39 % of control
T/C [1]: 59 % of control
T/C [2]: 29 % of control
T/C (dose: 12.5 mg/kg/injection, schedule: Q01DX011 (ip), vehicle: methylcellulose (MC)): 27 % of control
T/C [3]: 28 % of control
T/C [4]: 33 % of control and 48 % of control
T/C [5]: 5 % of control
T/C [6]: 42 % of control
T/C [7]: 7 % of control

Nc1ncnc2c1nc(Br)n2C1CC(O)C(CO)O1 (configuration not stated)
T/C [8]: 89 % of control
T/C [9]: 89 % of control
T/C [10]: 75 % of control
T/C [11]: 123 % of control

Nc1ncnc2c1ncn2CCO
T/C [4]: 52 % of control
T/C [6]: 76 % of control
T/C [7]: 67 % of control

Cn1c(=O)c2ncn(CC(=O)O)c2n(C)c1=O
T/C [8]: 45 % of control
T/C [9]: 156 % of control
T/C [10]: 99 % of control
T/C [11]: 120 % of control

Cn1ncc2c(NCc3ccccc3)ncnc21
T/C [12]: 62 % of control and 66 % of control and 71 % of control
T/C [13]: 43 % of control and 58 % of control and 60 % of control
T/C [14]: 5 % of control and 24 % of control and 29 % of control

Nc1c(Br)cc2c(c1Br)Cc1cc([N+](=O)[O-])ccc1-2
T/C (dose: 1.5 mg/kg/injection, schedule: Q01DX011 (ip), vehicle: carboxymethylcellulose (CMC)): 85 % of control
T/C (dose: 3.0 mg/kg/injection, schedule: Q01DX011 (ip), vehicle: carboxymethylcellulose (CMC)): 63 % of control
T/C (dose: 6.0 mg/kg/injection, schedule: Q01DX011 (ip), vehicle: carboxymethylcellulose (CMC)): 43 % of control
T/C (dose: 6.0 mg/kg/injection, schedule: Q01DX011 (ip), vehicle: other): 94 % of control
T/C (dose: 6.25 mg/kg/injection, schedule: Q01DX011 (ip), vehicle: saline): 109 % of control
T/C [1]: 22 % of control
T/C (dose: 12.5 mg/kg/injection, schedule: Q01DX011 (ip), vehicle: saline): 69 % of control
T/C [3]: 7 % of control
T/C (dose: 25.0 mg/kg/injection, schedule: Q01DX011 (ip), vehicle: saline): 82 % of control
T/C (dose: 27.5 mg/kg/injection, schedule: Q01DX011 (ip), vehicle: saline): 46 % of control
T/C [5]: 12 % of control
T/C (dose: 50.0 mg/kg/injection, schedule: Q01DX011 (ip), vehicle: saline): 57 % of control
T/C (dose: 50.0 mg/kg/injection, schedule: Q01DX011 (oral), vehicle: saline): 90 % of control
T/C (dose: 55.0 mg/kg/injection, schedule: Q01DX011 (ip), vehicle: saline): 29 % of control
T/C (dose: 100.0 mg/kg/injection, schedule: Q01DX011 (ip), vehicle: carboxymethylcellulose (CMC)): 19 % of control
T/C (dose: 100.0 mg/kg/injection, schedule: Q01DX011 (ip), vehicle: saline): 63 % of control
T/C (dose: 100.0 mg/kg/injection, schedule: Q01DX011 (oral), vehicle: saline): 72 % of control
T/C (dose: 110.0 mg/kg/injection, schedule: Q01DX011 (ip), vehicle: other): 17 % of control and 30 % of control
T/C (dose: 110.0 mg/kg/injection, schedule: Q01DX011 (ip), vehicle: saline): 21 % of control and 38 % of control
T/C (dose: 200.0 mg/kg/injection, schedule: Q01DX011 (ip), vehicle: carboxymethylcellulose (CMC)): 8 % of control
T/C (dose: 200.0 mg/kg/injection, schedule: Q01DX011 (ip), vehicle: saline): 46 % of control
T/C (dose: 200.0 mg/kg/injection, schedule: Q01DX011 (oral), vehicle: saline): 91 % of control
T/C (dose: 225.0 mg/kg/injection, schedule: Q01DX011 (ip), vehicle: other): 17 % of control and 32 % of control
T/C (dose: 400.0 mg/kg/injection, schedule: Q01DX011 (oral), vehicle: saline): 117 % of control
T/C (dose: 450.0 mg/kg/injection, schedule: Q01DX011 (ip), vehicle: other): 6 % of control
T/C (dose: 800.0 mg/kg/injection, schedule: Q01DX011 (oral), vehicle: saline): 66 % of control
T/C (dose: 900.0 mg/kg/injection, schedule: Q01DX011 (ip), vehicle: other): 15 % of control

CN(C)/N=N/c1nc[nH]c1C(N)=O
T/C [12]: 79 % of control
T/C [13]: 59 % of control
T/C [2]: 50 % of control
T/C (dose: 16.0 mg/kg/injection, schedule: Q01DX011 (ip), vehicle: methylcellulose (MC)): 54 % of control
T/C [14]: 53 % of control and 57 % of control
T/C (dose: 20.0 mg/kg/injection, schedule: Q01DX011 (ip), vehicle: saline): 64 % of control
T/C [4]: 37 % of control
T/C (dose: 31.0 mg/kg/injection, schedule: Q01DX011 (ip), vehicle: carboxymethylcellulose (CMC)): 52 % of control
T/C (dose: 31.0 mg/kg/injection, schedule: Q01DX011 (ip), vehicle: methylcellulose (MC)): 62 % of control
T/C (dose: 40.0 mg/kg/injection, schedule: Q01DX011 (ip), vehicle: saline): 63 % of control
T/C [6]: 30 % of control
T/C (dose: 62.0 mg/kg/injection, schedule: Q01DX011 (ip), vehicle: carboxymethylcellulose (CMC)): 47 % of control
T/C (dose: 62.0 mg/kg/injection, schedule: Q01DX011 (ip), vehicle: methylcellulose (MC)): 94 % of control
T/C (dose: 62.5 mg/kg/injection, schedule: Q01DX011 (ip), vehicle: carboxymethylcellulose (CMC)): 55 % of control
T/C (dose: 80.0 mg/kg/injection, schedule: Q01DX011 (ip), vehicle: saline): 30 % of control
T/C [7]: 22 % of control
T/C (dose: 160.0 mg/kg/injection, schedule: Q01DX011 (ip), vehicle: saline): 17 % of control
T/C (dose: 600.0 mg/kg/injection, schedule: Q01DX011 (ip), vehicle: saline): 3 % of control

On1cnc(=S)c2[nH]cnc21
T/C (dose: 125.0 mg/kg/injection, schedule: Q01DX011 (ip), vehicle: carboxymethylcellulose (CMC)): 5 % of control

C=CCOP(=O)(N1CC1CC)N1CC1CC (configuration not stated)
T/C (dose: 17.0 mg/kg/injection, schedule: Q01DX011 (ip), vehicle: saline): 69 % of control
T/C (dose: 33.0 mg/kg/injection, schedule: Q01DX011 (ip), vehicle: saline): 50 % of control
T/C (dose: 66.0 mg/kg/injection, schedule: Q01DX011 (ip), vehicle: saline): 18 % of control

CC(C)Cn1cnc2c(SCc3ccccc3)nc(N)nc21
T/C (dose: 37.5 mg/kg/injection, schedule: Q01DX011 (ip), vehicle: methylcellulose (MC)): 62 % of control
T/C (dose: 75.0 mg/kg/injection, schedule: Q01DX011 (ip), vehicle: methylcellulose (MC)): 27 % of control
T/C (dose: 150.0 mg/kg/injection, schedule: Q01DX011 (ip), vehicle: methylcellulose (MC)): 20 % of control
T/C (dose: 300.0 mg/kg/injection, schedule: Q01DX011 (ip), vehicle: methylcellulose (MC)): 4 % of control

CC1(O)CC([CH2][Hg][I])OC([CH2][Hg][I])C1 (configuration not stated)
T/C [3]: 96 % of control
T/C [5]: 67 % of control
